Here are results for 33 molecules from ChEMBL document CHEMBL3227931, “10-(Alkylamino)-4H-thieno[3,4-b][1,5]benzodiazepines. A novel class of potential neuroleptic agents” (J Med Chem, 1979).

Data set [1] relates to Rattus norvegicus. Nature of the data set: Neuroleptic activity in po dosed rat assessed as concentration required to cause 50% reduction of motor activity. Type of data set: functional.
The subject of data set [2] is Rattus norvegicus. Kind of data set: Induction of catalepsy in po dosed rat measured for 0.5 to 18 hrs. Type of data set: organism-based. Conditions: in vivo.
In data set [3] the test system is Mus musculus. Nature of the data set: Antidepressant activity in po dosed mouse assessed as inhibition of tetrabenazine hexamate-induced depression administered 1 hr followed by tetrabenazine hexamate challenge measured after 30 mins. Type of data set: functional. To be noted: read-out: MED.
The test system of data set [4] is Mus musculus. Kind of data set: Neuroleptic activity in po dosed mouse assessed as inhibition of d-amphetamine sulfate-induced lethality administered for 0.5 hrs followed by d-amphetamine sulfate challenge measured after 24 hrs. Type of data set: functional.
For data set [5], the system named is Mus musculus. Nature of the data set: Antidepressant activity in mouse assessed as inhibition of tetrabenazine hexamate-induced depression at 25 mg/kg, po administered 1 hr followed by tetrabenazine hexamate challenge measured after 30 mins. The arrangement: dose 25 mg/kg. Type of data set: functional, organism-based.
The subject of data set [6] is Mus musculus. Kind of data set: Neuroleptic activity in mouse assessed as inhibition of d-amphetamine sulfate-induced lethality at 20 mg/kg, ip administered for 0.5 hrs followed by d-amphetamine sulfate challenge measured after 24 hrs. Type of data set: functional, organism-based. The arrangement: dose 20 mg/kg.
The test system of data set [7] is Rattus norvegicus. Kind of data set: Neuroleptic activity in rat assessed as reduction of motor activity at 50 mg/kg, ip. Type of data set: functional, organism-based. The arrangement: dose 50 mg/kg.

Activity calls are given as the source filed them. The calls are words filed in the database; no cut-off is given here.

A word on the ED50: it is the dose that gives a 50% effect, or the effect in half of the subjects. Turning to `CN1CCN(C2=Nc3cc(Cl)ccc3Nc3cscc32)CC1`, in the data set on Rattus norvegicus [1], the MDD50 is 13.9 mg/kg. For the same molecule, the ED50 in the data set with Rattus norvegicus [2] stood at 16 mg/kg.
For the molecule `CCN1c2ccccc2N=C(N2CCN(C)CC2)c2cscc21.O=C(O)/C=C/C(=O)O`, in the data set with Rattus norvegicus [1], the MDD50 is 23 mg/kg. Also, the minimal effective dose in the data set on Mus musculus [3] amounted to 6.25 mg/kg. For the same molecule, the ED50 in the data set on Mus musculus [4] turned out to be 5.7 mg/kg.
`Cc1ccc2c(c1)Nc1cscc1C(N1CCN(C)CC1)=N2`: the MDD50 in the data set on Rattus norvegicus [1] turned out to be 9 mg/kg. In addition, the ED50 in the data set on Mus musculus [4] stood at 5.8 mg/kg.
As to `CCCN1CCN(C2=Nc3cc(Cl)ccc3N(C)c3cscc32)CC1.O=C(O)/C=C/C(=O)O`, the MDD50 in the data set with Rattus norvegicus [1] amounted to 24 mg/kg. Besides, the inhibition result in the data set on Mus musculus [5] and in the data set with Mus musculus [6] was “inactive” throughout.
Take `CN(C)CCCN1c2ccccc2Sc2ccc(Cl)cc21` [CHLORPROMAZINE]: in the data set with Rattus norvegicus [1], the MDD50 came to 2 mg/kg. Also, in the data set on Mus musculus [5], the inhibition entry is “inactive”. The ED50 with Mus musculus [4] turned out to be 0.6 mg/kg; with Rattus norvegicus [2] it was 7 mg/kg.
With `CCN1CCN(C2=Nc3ccccc3Nc3cscc32)CC1`, the MDD50 with Rattus norvegicus [1] was 6.3 mg/kg.
For `Cc1cc2c(cc1C)N(C)c1cscc1C(N1CCN(C)CC1)=N2.O=C(O)/C=C/C(=O)O`, in the data set on Rattus norvegicus [1], the MDD50 was 58 mg/kg. Further, the inhibition result in the data set with Mus musculus [5] and with Mus musculus [6] was “inactive” in each case.
For `Cc1cc2c(cc1C)Nc1cscc1C(N1CCN(C)CC1)=N2`, the MDD50 with Rattus norvegicus [1] stood at 26.2 mg/kg.
`CN1c2ccccc2N=C(N2CCNCC2)c2cscc21.O=C(O)/C=C/C(=O)O`: the inhibition result in the data set on Mus musculus [6] was “inactive”. In the data set on Rattus norvegicus [7], the result was inactive. The minimal effective dose with Mus musculus [3] was determined as 3.1 mg/kg.
`CN1c2ccccc2N=C(N2CCN(CCO)CC2)c2cscc21.O=C(O)/C=C/C(=O)O`: the MDD50 in the data set on Rattus norvegicus [1] turned out to be 21.3 mg/kg. For the same molecule, in the data set on Mus musculus [6], the inhibition entry was “inactive”. Further, the minimal effective dose with Mus musculus [3] stood at 12.5 mg/kg.
Turning to `Cc1cc2c(cc1C)Nc1cscc1C(N1CCCCC1)=N2`, the MDD50 with Rattus norvegicus [1] was determined as 50 mg/kg. In the data set with Mus musculus [6], the inhibition entry is “inactive”.
For `CN1CCN(C2=Nc3ccccc3N(C)c3c2csc3Cl)CC1.O=C(O)/C=C/C(=O)O`, the inhibition entry in the data set with Mus musculus [6] is “inactive”. For the same molecule, the result in the data set on Rattus norvegicus [7] was inactive. Also, the minimal effective dose in the data set on Mus musculus [3] is 3.1 mg/kg.
In the case of `CCN1c2ccccc2N=C(N2CCN(CCO)CC2)c2cscc21.O=C(O)/C=C/C(=O)O`, in the data set on Rattus norvegicus [1], the MDD50 came to 50 mg/kg. Besides, the inhibition result in the data set on Mus musculus [5] is “inactive”.
Regarding `c1ccc2c(c1)N=C(NCCN1CCCCC1)c1cscc1N2`, in the data set on Rattus norvegicus [1], the MDD50 is 37 mg/kg.
On to `Cc1cc2c(cc1C)Nc1cscc1C(NCCN1CCCCC1)=N2`, for which the MDD50 with Rattus norvegicus [1] was 50 mg/kg. Besides, the inhibition entry in the data set on Mus musculus [6] is “inactive”.
As for `CN1CCN(C2=Nc3ccc(Cl)cc3Nc3cscc32)CC1`, in the data set on Rattus norvegicus [1], the MDD50 was 12.3 mg/kg. Besides, the inhibition result with Mus musculus [6] was “inactive”. In the data set on Rattus norvegicus [2], this molecule registered an ED50 of 16 mg/kg.
Regarding `CN1CCN(C2=Nc3ccc(Cl)cc3N(C)c3cscc32)CC1`, the inhibition entry with Mus musculus [6] was “inactive”. In addition, in the data set on Mus musculus [3], the minimal effective dose is 12.5 mg/kg.
For the molecule `CCN1CCN(C2=Nc3ccccc3N(C)c3cscc32)CC1.O=C(O)/C=C/C(=O)O`, the minimal effective dose in the data set on Mus musculus [3] came out at 6.25 mg/kg.
Turning to `CN1CCN(C2=Nc3ccccc3N(C)c3cscc32)CC1`, the MDD50 in the data set with Rattus norvegicus [1] stood at 12 mg/kg. For the same molecule, in the data set with Mus musculus [3], the minimal effective dose is 3.1 mg/kg. In addition, the ED50 worked out at 3.6 mg/kg in the data set on Mus musculus [4] and 14 mg/kg in the data set with Rattus norvegicus [2].
As for `CCN1CCN(C2=Nc3cc(Cl)ccc3N(C)c3cscc32)CC1.O=C(O)/C=C/C(=O)O`, the MDD50 with Rattus norvegicus [1] was 7.3 mg/kg. In the data set on Mus musculus [5], the inhibition entry is “inactive”. The ED50 with Mus musculus [4] was found to be 1.1 mg/kg.
With `COc1ccc2c(c1)Nc1cscc1C(N1CCN(C)CC1)=N2`, the MDD50 in the data set with Rattus norvegicus [1] was found to be 16.1 mg/kg. The ED50 is 1.1 mg/kg with Mus musculus [4] and 15 mg/kg in the data set on Rattus norvegicus [2].
The matching figures for `CN1CCN(C2=Nc3ccccc3Nc3cscc32)CC1`: 6.1 mg/kg, 6 mg/kg and 11 mg/kg.
On to `CC(=O)OCCN1CCN(C2=Nc3cc(Cl)ccc3N(C)c3cscc32)CC1.O=C(O)/C=C/C(=O)O`, for which the MDD50 in the data set with Rattus norvegicus [1] was 26.7 mg/kg. Besides, the inhibition result in the data set on Mus musculus [5] is “inactive”. In addition, in the data set with Mus musculus [4], the ED50 is 3.2 mg/kg.
`CN(C)C1=Nc2ccccc2Nc2cscc21`: in the data set with Rattus norvegicus [1], the MDD50 was determined as 26.5 mg/kg.
For the molecule `CN(C)CCCN1c2ccccc2CCc2ccccc21` [IMIPRAMINE], the MDD50 in the data set on Rattus norvegicus [1] was more than 50 mg/kg. The minimal effective dose with Mus musculus [3] is 12 mg/kg. In addition, the ED50 in the data set on Mus musculus [4] was more than 20 mg/kg.
As to `CN1CCN(C2=Nc3cc(Cl)c(Cl)cc3N(C)c3cscc32)CC1.O=C(O)/C=C/C(=O)O`, the MDD50 with Rattus norvegicus [1] stood at 35.9 mg/kg. For the same molecule, in the data set with Mus musculus [5], the inhibition result is “inactive”. Further, in the data set on Mus musculus [4], the ED50 is 8 mg/kg.
Turning to `CN1CCN(C2=Nc3cc(Cl)ccc3Nc3ccccc32)CC1` [CLOZAPINE], the MDD50 in the data set with Rattus norvegicus [1] was determined as 21 mg/kg. For the same molecule, the inhibition result in the data set on Mus musculus [5] is “inactive”. The ED50 was 2 mg/kg in the data set with Mus musculus [4] and 76 mg/kg in the data set with Rattus norvegicus [2].
The matching figures for `CN1c2ccc(Cl)cc2N=C(N2CCN(CCO)CC2)c2cscc21.Cl`: 20.4 mg/kg, “inactive”, 2 mg/kg and 13 mg/kg.
Take `CN1CCN(C2=Nc3cc(Cl)ccc3N(C)c3cscc32)CC1.O=C(O)/C=C/C(=O)O`: in the data set with Rattus norvegicus [1], the MDD50 stood at 17 mg/kg. The inhibition entry with Mus musculus [5] was “inactive”. Moreover, the figures for the ED50 in the data set on Mus musculus [4] and with Rattus norvegicus [2] were 1.4 mg/kg and 40 mg/kg, respectively.
Consider `CCN1CCN(C2=Nc3ccccc3N(CC)c3cscc32)CC1.O=C(O)/C=C/C(=O)O`, for which the MDD50 in the data set on Rattus norvegicus [1] was 28 mg/kg. Further, in the data set on Mus musculus [3], the minimal effective dose was determined as 25 mg/kg.
As to `OCCN1CCN(C2=Nc3ccccc3Nc3cscc32)CC1`, the MDD50 in the data set on Rattus norvegicus [1] is 33.1 mg/kg.
In the case of `CN1CCN(C2=Nc3ccccc3N(C)c3cscc32)CC1.O=C(O)/C=C/C(=O)O`, the MDD50 in the data set with Rattus norvegicus [1] was found to be 8.7 mg/kg. Also, the minimal effective dose in the data set with Mus musculus [3] amounted to 3.1 mg/kg. The ED50 with Mus musculus [4] turned out to be 4.8 mg/kg.
Turning to `CCCN1CCN(C2=Nc3ccccc3Nc3cscc32)CC1`, the MDD50 in the data set with Rattus norvegicus [1] worked out at 27 mg/kg. In the data set with Mus musculus [4], the ED50 worked out at 6 mg/kg.
